Measurements from the supplement of paper PMC10883282.

Tests used:
Experiment in all cases: relative viability vs DMSO control (72 h) (fraction); higher = more viable cells
KHOS-NP = system: KHOS-NP
How it was run: (§1)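 Sarcoma cell lines in 384-well plates, seeded to reach 80–90% confluence, were given compound after 24 h and kept 72 h at 37 °C, 5% CO2, with 0.1% DMSO vehicle and a 5 µM positive control. Relative viability came from ATPLite as percent growth, averaged over up to triplicate wells. On the rescaled values, 1 equals full and 0 equals none.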

MES-SA = system: MES-SA
How it was run: as §1

SW872 = system: SW872
How it was run: as §1

A204 = system: A204
How it was run: as §1

SW684 = system: SW684
How it was run: as §1

SK-ES-1 = system: SK-ES-1
How it was run: as §1

CO[C@@H]1[C@H](N(C)C(=O)c2ccccc2)C[C@H]2O[C@]1(C)n1c3ccccc3c3c4c(c5c6ccccc6n2c5c31)C(=O)NC4 [Midostaurin]
relative viability
Conditions | A204 | KHOS-NP | MES-SA | SK-ES-1 | SW684 | SW872
0.00017 µM | 1.04 | 1.04 | 0.87 | 0.994 | 1.08 | 0.976
0.00051 µM | 1.03 | 1.04 | 0.8799 | 0.969 | 1.05 | 1
0.00152 µM | 1.02 | 1.04 | 0.889 | 0.931 | 1.05 | 0.965
0.00457 µM | 0.997 | 1.038 | 0.885 | 0.985 | 1.02 | 0.958
0.01372 µM | 1.01 | 1.02 | 0.891 | 0.987 | 1.04 | 0.945
0.04115 µM | 0.961 | 1.02 | 0.866 | 0.966 | 1.05 | 0.896
0.1235 µM | 0.792 | 0.987 | 0.818 | 0.898 | 1.08 | 0.826
0.3704 µM | 0.485 | 0.893 | 0.408 | 0.266 | 0.863 | 0.592
1.111 µM | 0.263 | 0.39 | 0.251 | 0.0642 | 0.524 | 0.399
3.333 µM | 0.192 | 0.257 | 0.139 | 0.0543 | 0.406 | 0.253
10 µM | 0.157 | 0.271 | 0.0904 | 0.0611 | 0.363 | 0.219
